For ten molecules, IC50 results are on record in BindingDB's records for patent US20240043440 (Case Western Reserve University, 2024).

Each structure is given as a SMILES string.

Broadly, the IC50 is the concentration at which inhibition is half-maximal.

The target of this test is T1, 15-hydroxyprostaglandin dehydrogenase [NAD(+)] (Homo sapiens, UniProt P15428).
T1 sequence (P15428 whole entry): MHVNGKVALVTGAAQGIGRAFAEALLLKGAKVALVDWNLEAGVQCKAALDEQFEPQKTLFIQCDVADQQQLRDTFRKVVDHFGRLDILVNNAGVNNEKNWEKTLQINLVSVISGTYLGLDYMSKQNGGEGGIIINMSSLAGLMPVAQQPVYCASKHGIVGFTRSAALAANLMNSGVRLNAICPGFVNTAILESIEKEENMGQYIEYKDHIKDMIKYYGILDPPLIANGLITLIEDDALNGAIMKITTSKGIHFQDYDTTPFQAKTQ
In words: In vitro Assay (5 nM).
Description: Each compound for inhibiting enzymatic activity of recombinant 15-PGDH (5 nM) in an in vitro assay.
In turn, `CCCC[S+]([O-])c1sc2nc(-c3cccnc3)cc(-c3ccccc3)c2c1N` (stereo not given) [US20240043440, Example 19] yielded an IC50 of 2.4 nM.
Under `CCCC[S+]([O-])c1sc2nc(-c3cncnc3)cc(-c3ccccc3)c2c1N` (stereo not given) [US20240043440, Example 20] stands 3.2 nM.
Under `CCCC[S+]([O-])c1sc2nc(-c3cnc(N)nc3)cc(-c3ccccc3)c2c1N` (stereo not given) [US20240043440, Example 21] stands 4 nM; under `CCCC[S+]([O-])c1sc2nc(-c3ccc(F)nc3)cc(-c3ccccc3)c2c1N` (stereo not given) [US20240043440, Example 22], 4 nM; under `CCCC[S+]([O-])c1sc2nc(-c3cnn(C)c3)cc(-c3ccccc3)c2c1N` (stereo not given) [US20240043440, Example 24], 3 nM.
As for `CCCC[S+]([O-])c1sc2nc(-c3nccs3)nc(-c3cccnc3)c2c1N` (stereo not given) [US20240043440, Example 26], the figure is 20 nM; as for `CCCC[S+]([O-])c1sc2nc(-c3ccccc3)cnc2c1N` (stereo not given) [US20240043440, Example 27], 1.6 nM; as for `CCCC[S+]([O-])c1sc2nc(-c3nccs3)cc(-c3cn(C)cn3)c2c1N` (stereo not given) [US20240043440, Example 28], 1.4 nM.
Regarding `CCCC[S@@+]([O-])c1sc2nc(-c3nccs3)cc(-c3nccn3CC)c2c1N` [US20240043440, Example 29], inhibition was half-maximal at 1.4 nM (IC50).
As for `CCCC[S@+]([O-])c1sc2nc(-c3nccs3)cc(-c3nccn3CC)c2c1N` [US20240043440, Example 30], the figure is 221 nM.
